Tests used:
[1] = target: T1, Trans-sialidase (Trypanosoma cruzi) (UniProt Q26964); test: Inhibition of Trypanosoma cruzi trans-sialidase at 1 mM assessed as reduction of 3'-sialyl-N-acetyllactosamine formation at 1 mM using N-acetyllactosamine as substrate and 3-sialyl-lactose as donor incubated for 15 mins by HPAEC-PAD relative to control
T1 sequence (whole entry): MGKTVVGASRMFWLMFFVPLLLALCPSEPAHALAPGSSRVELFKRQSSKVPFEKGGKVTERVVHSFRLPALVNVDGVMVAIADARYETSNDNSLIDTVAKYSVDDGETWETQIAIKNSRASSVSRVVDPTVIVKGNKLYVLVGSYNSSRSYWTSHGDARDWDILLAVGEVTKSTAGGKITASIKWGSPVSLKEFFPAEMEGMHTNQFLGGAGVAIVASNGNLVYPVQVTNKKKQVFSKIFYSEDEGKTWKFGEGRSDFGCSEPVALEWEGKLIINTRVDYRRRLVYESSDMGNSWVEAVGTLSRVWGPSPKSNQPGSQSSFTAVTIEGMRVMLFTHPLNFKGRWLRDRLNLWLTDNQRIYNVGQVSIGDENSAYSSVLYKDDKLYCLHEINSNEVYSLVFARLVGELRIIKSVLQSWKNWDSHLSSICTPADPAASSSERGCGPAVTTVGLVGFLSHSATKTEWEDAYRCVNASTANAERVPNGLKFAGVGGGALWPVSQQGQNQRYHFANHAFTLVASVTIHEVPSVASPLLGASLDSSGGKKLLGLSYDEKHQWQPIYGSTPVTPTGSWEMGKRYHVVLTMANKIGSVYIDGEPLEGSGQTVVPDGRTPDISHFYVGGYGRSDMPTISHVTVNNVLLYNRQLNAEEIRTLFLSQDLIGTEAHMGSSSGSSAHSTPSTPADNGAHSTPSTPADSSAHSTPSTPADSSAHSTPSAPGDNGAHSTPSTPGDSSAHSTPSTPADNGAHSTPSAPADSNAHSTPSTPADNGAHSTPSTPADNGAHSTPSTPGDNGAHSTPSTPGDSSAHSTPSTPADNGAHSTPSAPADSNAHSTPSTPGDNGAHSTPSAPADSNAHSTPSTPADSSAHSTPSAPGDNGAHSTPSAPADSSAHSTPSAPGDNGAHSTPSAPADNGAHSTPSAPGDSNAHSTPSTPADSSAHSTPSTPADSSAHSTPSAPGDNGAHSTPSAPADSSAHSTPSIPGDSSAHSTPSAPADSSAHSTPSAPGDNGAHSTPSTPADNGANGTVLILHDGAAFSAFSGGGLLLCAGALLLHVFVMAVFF

Trypanosoma cruzi [2] = test: Trypanocidal activity against trypomastigote stage of Trypanosoma cruzi NINOA infected in NIH mouse blood assessed as parasite lysis at 10 ug/ml after 24 hrs by optical microscopic method relative to control; assay type: functional
Trypanosoma cruzi [3] = test: Trypanocidal activity against trypomastigote stage of Trypanosoma cruzi NINOA infected in NIH mouse blood assessed as […] parasite lysis after 24 hrs by optical microscopic method; assay type: functional
Trypanosoma cruzi [4] = test: Trypanocidal activity against trypomastigote stage of Trypanosoma cruzi INC-5 infected in NIH mouse blood assessed as parasite lysis at 10 ug/ml after 24 hrs by optical microscopic method relative to control; assay type: functional
Trypanosoma cruzi [5] = test: Trypanocidal activity against trypomastigote stage of Trypanosoma cruzi INC-5 infected in NIH mouse blood assessed as parasite lysis after 24 hrs by optical microscopic method; assay type: functional; conditions: INC-5, Blood

SMILES	inhibition [1]	Activity (Trypanosoma cruzi [2])	LC50 (Trypanosoma cruzi [3])	Activity (Trypanosoma cruzi [4])	LC50 (Trypanosoma cruzi [5])
Cc1ccc2c(c1)C(=O)N(C(CC(=O)O)c1ccc3ccccc3c1)C2=O (stereo not given)	86.9%	63%	52.7 µM	65%	46.2 µM
O=C(O)CC(c1ccc2ccccc2c1)N1C(=O)c2ccccc2C1=O (stereo not given)	65.8%	57%	97.3 µM	62%	117 µM
NC(CC(=O)O)c1ccco1 (stereo not given)	11.9%	53%	99.1 µM	50%	229 µM
O=C(O)CC(c1ccco1)N1C(=O)c2ccc(C(=O)O)cc2C1=O (stereo not given)	19.2%	77%	77.6 µM	55%	102 µM

Reference: ChEMBL document CHEMBL4152334, “Synthesis, molecular docking and biological evaluation of novel phthaloyl derivatives of 3-amino-3-aryl propionic acids as inhibitors of Trypanosoma cruzi trans-sialidase” (2018)
